In patent publication US20240382540A1, “MODULATION OF FUSOBACTERIUM VARIUM TO PREVENT BOVINE LIVER ABSCESSES AND IMPROVE CATTLE PERFORMANCE” (priority 2023, published 2024):

Assays:
[1] = system: Fusobacterium necrophorum; settings: grain-fed cattle; antibiotic as component of cattle feed; cited from earlier work
F. varium [2] = assay: Rumen fluid enrichment cultures with lactate; format: cell-based, Fusobacterium varium; settings: lactate present in rumen fluid enrichment cultures
Description: Microbial lactate utilization is linked to several pathogenic mechanisms. […] Currently it is unknown if some or all cattle-associated F. varium strains are able to derive energy from lactate. […] Thus, it is possible that the acquisition of this or a similar mobile genetic element has provided some bovine F. varium strains with the capability of utilizing lactate as a source of energy and a means for avoiding host immunity.
This identification was based on 16S rRNA sequencing using close to the full-length gene (27F/1492R primers), a reliable method for determining bacterial species (FIG. 1).

F. varium [3] = assay: Antimicrobial susceptibility testing: growth of F. varium strains exposed to tylosin and monensin; format: cell-based, Fusobacterium varium; settings: for growth inhibition: all tested F. varium strains
Description: (§1) In an effort to understand the differential response of Fusobacterium species to antimicrobial agents commonly used in livestock, we examined the effect of tylosin and monensin on the growth of reference strains and newly isolated strains of F. varium and F. necrophorum.
(§2) To set up the experiment, we exposed three strains each of F. varium and F. necrophorum to tylosin and monensin at concentrations relevant to ruminal environments.

F. necrophorum = assay: Antimicrobial susceptibility testing: growth of F. necrophorum strains exposed to tylosin and monensin; format: cell-based, Fusobacterium necrophorum; settings: for decline/reduction in growth: F. necrophorum strain 8L1; for growth inhibition: all three F. necrophorum strains tested
Description: as §1, §2
Strains A and 8L1 were most affected, with both displaying a 98% reduction in growth. […] In this context, growth reductions of 44-66% were observed (P<0.05).

[4] = concentrations relevant to ruminal environments

virginiamycin
ruminal concentrations of Fusobacterium necrophorum [1]: significantly reduced

CC(O)C(=O)O (stereo not drawn) [lactate]
enrichment of native F. varium strains (F. varium [2]): up to 35,000 fold

CC[C@@]1([C@@H]2O[C@@H]([C@H]3O[C@@](O)(CO)[C@H](C)C[C@@H]3C)C[C@@H]2C)CC[C@H]([C@]2(C)CC[C@]3(C[C@H](O)[C@@H](C)[C@@H]([C@@H](C)[C@@H](OC)[C@H](C)C(=O)O)O3)O2)O1 [monensin]
decrease in growth (F. varium [3]; F. varium bovine isolates, concentrations relevant to ruminal environments): 15%
growth inhibition (F. varium [3]; [4]): did not show substantial growth inhibition
growth response (F. varium [3]; reference strain F. varium NCTC 10560): no significant response
decline/reduction in growth (F. necrophorum): 98%
reduction in growth (F. necrophorum; F. necrophorum strain A): 98%
growth reduction (F. necrophorum; F. necrophorum, medium containing only casein pancreatic digest and yeast extract as carbon sources): 44-66%
growth inhibition (F. necrophorum): more than 87%

CC[C@H]1OC(=O)C[C@@H](O)[C@H](C)[C@@H](O[C@@H]2O[C@H](C)[C@@H](O[C@H]3C[C@@](C)(O)[C@@H](O)[C@H](C)O3)[C@H](N(C)C)[C@H]2O)[C@@H](CC=O)C[C@@H](C)C(=O)/C=C/C(C)=C/[C@@H]1CO[C@@H]1O[C@H](C)[C@@H](O)[C@@H](OC)[C@H]1OC [tylosin]
growth inhibition (F. varium [3]; [4]): none of the tested strains exhibited substantial growth inhibition
decline in growth (F. varium [3]; strain F. varium DNLA-8, concentrations relevant to ruminal environments): 13%
decline/reduction in growth (F. necrophorum): 92%
decline in growth (F. necrophorum; F. necrophorum strain FNA): 94%
growth inhibition (F. necrophorum): over 67%
ruminal concentrations of Fusobacterium necrophorum [1]: significantly reduced
